This note sets out measurements from US8722729B2, “Unsaturated fatty acid monoesters and diesters on ascorbic acid and cosmetic uses thereof” (Pierre Fabre Dermo-Cosmetique, priority 2009, dated 2014).

By inhibition is commonly meant the relative decrease from the control value, in per cent. As usually defined, the pIC50 is the IC50 on a negative log10 scale, so that one unit is a factor of ten.

Assay [1] concerns keratinocytes HaCaT. In words: Assay of the synthesis of hyaluronic acid in HaCaT keratinocytes (ELISA). The assay is classed as cell-based, human. To be noted: for Percentage stimulation of the synthesis of hyaluronic acid: 48 h, vs control. The protocol:
The keratinocytes HaCaT are cultured in DMEM culture medium+10% FCS. The cells are treated with the active ingredients to be tested (Table 1) for 48 h at 37° C. The synthesized hyaluronic acid (HA) is assayed in the culture medium using an ELISA type kit (Echelon®).
The percentage activity was determined as follows • percentage variation compared with the control %p/C=([HA]active ingred./[HA]control×100)−100 4.4.2 Results of the Assay of Hyaluronic Acid on the Line of Human Keratinocytes HaCaT
On the technique in general: An ELISA detects its analyte on a solid surface through an enzyme-linked reagent.

In assay [2] the test system is B16-F10 cells. Briefly: Assay of melanin in B16-F10 cells (colorimetric, α-MSH stimulated). The assay is classed as cell-based, murine. To be noted: for inhibition at 10 µM / inhibition at 20 µM / inhibition at 50 µM / inhibition at 100 µM: B16-F10, 72 hours, read-out: Percentage inhibition of intracellular melanin. The procedure:
Similarly, to evidence the depigmenting activity of the compounds of general formula (I) according to the invention, the effect of these compounds was measured on the synthesis of melanin by colorimetric assay on a cell line of murine melanomas: line B16-F10.
This is a test to measure the synthesis of melanin by colorimetric assay on a cell line of murine melanomas: line B16-F10. This test allows the evaluation of the depigmenting property of active ingredients.
The B16-F10 cells were seeded onto 96-well plates in DMEM medium supplemented with FCS (fetal calf serum) and incubated 24 hours at 37° C., 5% CO2. The cells were then stimulated with α-MSH (to stimulate the synthesis of melanin, the stimulation observed was about 150%) and treated 72 hours with the active ingredients to be tested. Each concentration of active ingredient was tested at least in triplicate. Total melanin followed by intracellular melanin dissolved in lysis buffer were then assayed by absorbency reading at 405 nm. The total proteins were determined in the lysate and the results are expressed in mg melanin/mg proteins. The percentage activity was calculated as follows: […]
A negative value indicates an inhibition, whereas a positive value indicates induced synthesis of melanin.

For assay [3], the system named is MMP-1. Briefly: Gene expression of MMP-1 in human dermal fibroblasts treated with H2O2 (real-time PCR). Type of assay: cell-based. The conditions noted are these: for RQ (relative quantity of mRNA) MMP-1 / % Inhibition of the level of mRNA expression MMP-1: 3 μM; for RQ (relative quantity of mRNA) MMP-1: senescent fibroblasts stimulated with H2O2, non-treated control = 1; for % Inhibition of the level of mRNA expression MMP-1: vs H2O2 alone. The procedure: (§1) To evidence the activity of the compounds of general formula (I) against skin ageing and against inflammation, the effect of these compounds was measured on the gene expression of MMP-1, MMP-3 and IL8 in human dermal fibroblasts treated with H2O2, thereby mimicking the process of cellular senescence. The effect of these compounds of general formula (I) was also measured on the synthesis of hyaluronic acid and on hyaluronidase activity. The stimulation of the synthesis of hyaluronic acid also allows skin hydration to be improved and/or restored (Bissett D L. J. Cosmet. Dermatol. 2006 Dec. 5(4): 309-15. Glucosamine: an ingredient with skin and other benefits).
(§2) Human dermal fibroblasts (isolated from discarded operative skin) were cultured in DMEM culture medium+10% FCS. The cells were pre-treated with vitamin C and the compound to be tested for 16 h at 37° C. and then stimulated with H2O2. The cells were then replaced in DMEM with vitamin C and dioctadeca-9,12-dienoate of (9Z,9′Z,12Z,12′Z)-2-(2,2-dimethyl-1,3-dioxolan-4-yl)-5-oxo-2,5-dihydrofuran-3,4-diyl. 72 hours after ending of stress, the fibroblasts entered into senescence: the senescent fibroblasts no longer proliferate but remain metabolically active (Hayflick, J. Invest. Dermatol., 73; 8-14, 1979). The cells were then lysed with the lysis buffer of the RNeasy® kit (QIAGEN).
(§3) The extracted RNAs were converted to complementary DNA following the indications of the Quantitect Reverse Transcription kit by Qiagen. Real-time PCR analyses were conducted using an iQ cycler fluorescence thermocycler (BIO-RAD).
(§4) The level of expression of the mRNAs coding for MMP-1, MMP-3, IL8 was analyzed using the real-time PCR technique. To normalize the level of expression of the gene of interest, the analysis strategy developed by Vandesompela et al., Genome Biol. 3: RESEARCH0034 (2002) was chosen. […] In our model, the three tested reference genes were the following: β-actin (Human β-actin), GAPDH (Human glyceraldehyde-3-phosphate dehydrogenase) and YWHAZ (Tyrosine-3-monooxygenase, tryptopgan-5-monooxygenase activation protein zeta polypeptide).
(§5) The first step normalizes the Ct values obtained for the gene of interest in relation to the Ct values obtained for the reference gene, for each experimental condition.
(§6) The following was therefore calculated: ΔCt=Ctgene of interest−Ctreference gene
(§7) The second step of the calculation determines the variation in the number of copies of the gene of interest during treatment. To do so ΔΔCt is calculated: ΔΔCt=ΔCtnon-treated NHF−ΔCttreated NHF
(§8) For the non-treated control, this QR is therefore equal to 1. It is then possible to calculate an induction or inhibition factor of the gene of interest compared with this control.
(§9) Statistical analysis was performed using a test called “one-way ANOVA”. Variance analysis using the Dunnett test then allows the comparing, for each of the analyzed genes, of the ΔCt values of normal adult fibroblasts with the compounds in the presence of H2O2 in both cases. This test then gives the “p value” characterizing the significance of the results obtained for both conditions The degree of significance was established as follows: • significant for p<0.05(*) • very significant for p<0.005(**) • highly significant for p<0.001(***) • non-significant for p>0.05. […]
(§10) It is also possible to calculate percentage inhibition of the level of expression of the different mRNAs by the active ingredients to be evaluated, using the formula: […]
(In general: Real-time PCR tracks product formation cycle by cycle.)

Assay [4] has as its system MMP-3. Briefly: Gene expression of MMP-3 in human dermal fibroblasts treated with H2O2 (real-time PCR). Type of assay: cell-based. The conditions noted are these: for RQ (relative quantity of mRNA) MMP-3 / % Inhibition of the level of mRNA expression MMP-3: 3 μM; for RQ (relative quantity of mRNA) MMP-3: senescent fibroblasts stimulated with H2O2, non-treated control = 1; for % Inhibition of the level of mRNA expression MMP-3: vs H2O2 alone. The protocol: as §1, §2, §3, §4, §5, §6, §7, §8, §9, §10

pIC50: −log10 of the molar value. Marks after values point to notes of the source that are not given here.

Consider `O=C1O[C@H]([C@@H](O)CO)C(O)=C1O` [Ascorbic acid, ascorbic acid], for which the “Percentage stimulation of the synthesis of hyaluronic acid” value (shortened to “Percentage stimulation”) in assay [1] (30 μM) turned out to be 9%. Also, the “Percentage stimulation” value in assay [1] (300 μM) was 19%. Besides, the “Effect on the synthesis of hyaluronic acid” value in assay [1] (30 and 300 μM) was “no effect”. In addition, in assay [2] (Mus musculus), the inhibition at 10 µM is -5%, the inhibition at 20 µM turned out to be 7%, the inhibition at 50 µM is 5% and the inhibition at 100 µM amounted to 22%. In assay [3], the “RQ (relative quantity of mRNA) MMP-1” value is 3.2 and the “% Inhibition of the level of mRNA expression MMP-1” value stood at 18%. Moreover, in assay [4], the “RQ (relative quantity of mRNA) MMP-3” value is recorded as 3.5 and the “% Inhibition of the level of mRNA expression MMP-3” value is recorded as 50* %.
For `CCCCC/C=C\C/C=C\CCCCCCCC(=O)OC1=C(OC(=O)CCCCCCC/C=C\C/C=C\CCCCC)C(C2COC(C)(C)O2)OC1=O` (stereo not shown) [Molecule 1, diactodeca-9,12-dienoate of (9Z,9′Z,12Z,12′Z)-2-(2,2-dimethyl-1,3-dioxolan-4-yl)-5-oxo-2,5-dihydrofuran-3,4-diyl], the “Percentage stimulation” value in assay [1] (2 μM) is 132%. Also, the “Percentage stimulation” value in assay [1] (20 μM) was 70%. Further, in assay [2], the “Inhibition of the synthesis of intracellular melanin compared with vitamin C” value is “greater than that of vitamin C”. For the same molecule, in assay [2] (Mus musculus), the inhibition at 10 µM is 9%, the inhibition at 20 µM was 21%, the inhibition at 50 µM was 41% and the inhibition at 100 µM is 71%. Besides, the pIC50 in assay [2] (Mus musculus, B16-F10, α-MSH stimulated, read-out: IC50 intracellular melanin) is 4.17. In assay [3], the “Inhibition of MMP1 expression compared with ascorbic acid” value is “more substantially inhibits the expression of MMP1, MMP3 and IL-8 than ascorbic acid”; the “RQ (relative quantity of mRNA) MMP-1” value came out at 0.9; the “% Inhibition of the level of mRNA expression MMP-1” value is reported as 105*** %. Also, in assay [4], the “Inhibition of MMP3 expression compared with ascorbic acid” value was “more substantially inhibits the expression of MMP1, MMP3 and IL-8 than ascorbic acid”; the “RQ (relative quantity of mRNA) MMP-3” value is given as 1.9; the “% Inhibition of the level of mRNA expression MMP-3” value is recorded as 81*** %.
